Measurements as given in a melting point compilation (Tetko et al.).

Compound | melting point [°C]
C1COCCN2CCOCCOCCN(CCO1)CCOCCOCC2 | 68 to 72
Cc1c(S(=O)(=O)c2ccc(Cl)cc2)csc1C(=O)NN | 165 to 168
Cc1nc(-c2cccc(S(=O)(=O)Cl)c2)cs1 | 116 to 118
CCOC(=O)c1cc(-c2ccc(Cl)cc2)oc1C=O | 188
O=C1c2ccccc2CC2C=CC=CC12 (stereo not given) | 152
Nc1cc(N)c(/C=C/c2ccccc2)cc1/C=C/c1ccccc1 | 201
CC(C)(C)OC(=O)NCCC(N)=S | 109 to 112
CCOC(=O)Cc1ccc([N+](=O)[O-])cc1 | 64
CN1CCN(CCCN2c3ccccc3Sc3ccc(Cl)cc32)CC1 | 228
Cc1ccc(-c2csc3nc(C(F)(F)F)cc(=O)n23)cc1 | 186
CN(C)C(CSC(N)=O)CSC(N)=O | 188
CCNC(=O)C=C(C)C=CC=C(C)C=Cc1c(C)cc(OC)c(C)c1C | 180
CN1CCN(C)c2cc(Br)ccc21 | 55 to 56
O=C(O)COc1ccc(OC(F)(F)F)cc1 | 84 to 86
Cc1ccc(N(C)C(=S)Cl)cc1 | 56 to 59
Cc1nc(-c2ccc(C(=O)O)cc2)no1 | 262 to 264
O=[N+]([O-])c1ccccc1C=NO | 100
C=CCOc1cccc(O)c1C(C)=O | 45.5 to 46.5
CCCc1ccccc1O | 7
O=C1c2ccccc2C(=O)c2cc(O)ccc21 | 306
NC(=O)c1cnccc1/C=C/c1ccccc1 | 200
CC(=O)OC1CC2C3CCC(C(C)CCCC(C)C)C3(C)CCC2C2(C)CCC(O)CC12O (stereo not given) | 141
CN(C)c1cccc(C(=O)O)c1 | 151
COc1ccc(C(=O)CC(=O)C(F)(F)F)cc1 | 57 to 58
O=C(O)c1cc(I)cc(I)c1I | 223 to 228
CC1=C(C(=O)OCC(C)C)C(c2ccccc2)NC(=S)N1 (stereo not given) | 153

Compound | melting point [°C]
CCCCCCCCc1ccc(NC(=O)c2ccc(OC)cc2)cc1 | 132
Cc1cc(C)c(N)cc1C | 68
CC(C)C=C1NC(c2ccccc2)OC1=O (stereo not given) | 87
CCSc1nnc(N)s1 | 133 to 136
Nc1ccc(-c2cccs2)nc1 | 144 to 145
CN(C)c1ccc(/C=C(/C#N)c2nc(-c3ccc(Cl)cc3)cs2)cc1 | 133
OC1CCCCCCC1 | 25.1
O=[N+]([O-])c1ccc(-c2ccno2)cc1 | 172 to 174
CN(C)CCCCN(C)C | -100
O=C(O)Cc1ccc(Cl)cc1Cl | 129
O=c1c2ccccc2cc2n1CCc1ccccc1-2 | 101
CCOC(=O)C1(C)OC(=O)N(c2cc(Cl)cc(Cl)c2)C1=O (stereo not given) | 113
Cc1nc(C=O)cs1 | 56 to 58
C#CCCC#C | -6
CCSCC[C@@H](N)C(=O)O | 278
Cc1c(Br)c(Br)c(O)c(Br)c1Br | 195 to 200
COc1ccc(N=C=O)c(OC)c1 | 32
CCOC(=O)c1cc(Cl)cc(Cl)c1 | 35 to 36
C[C@@]12CCC=C1[C@@H]1CC[C@@H]3C[C@H](O)CC[C@]3(C)[C@H]1CC2 | 129 to 130
c1n[nH]c2c1CSC2 | 132 to 133
C#CCOc1cc(-n2nc3n(c2=O)CCCC3)c(Cl)cc1Cl | 168
C[C@]12CCC(=O)C=C1CCC2=O | 55 to 64
CC(=O)C(=Nc1ccccc1)c1cc(C(=Nc2ccccc2)C(C)=O)c([N+](=O)[O-])cc1[N+](=O)[O-] | 174 to 175
CS(=O)(=O)OCCCNCCCOS(C)(=O)=O | 116
O=S1(=O)CCN(Cc2ccccc2)CC1 | 85 to 86
O=C1c2ccccc2C(=O)N1Br | 206

Compound | melting point [°C]
COc1ccc(Cl)cc1C(=O)NCCc1ccc(S(=O)(=O)NC(=O)NC2CCCCC2)cc1 | 169
CC(C)=CC1C(C(=O)OCc2coc(Cc3ccccc3)c2)C1(C)C (stereo not given) | 56.5
CN(C)c1ccc2nc3ccc(=O)cc-3sc2c1 | 216
Cc1cc2c(o1)-c1c(oc3ccc(Cl)cc13)CCC2(C)c1ccccc1 (stereo not given) | 128
O=C(O)C12CC3CC(CC(Br)(C3)C1)C2 | 147 to 148
CS(=O)(=O)C1CS(=O)(=O)CC1O (stereo not given) | 200 to 210
CC1(C)OC2CC3C4CCC5=CC(=O)C=CC5(C)C4(F)C(O)CC3(C)C2(C(=O)CO)O1 (stereo not given) | 293
O=S(=O)(O)c1ccc(N=Nc2ccc(N=Nc3ccc(S(=O)(=O)O)cc3)cc2)cc1 | 157
CCCCCCCCCCCCCCCCO | 51.1
CCNC(=O)CC#N | 73 to 74
COc1ccc(OC)c(F)c1 | 25
CC(/C=C(\C)c1ccc(-c2ccccc2)cc1)=NNc1ccc([N+](=O)[O-])cc1[N+](=O)[O-] | 200 to 201
C[Si](C)(C)C1c2ccccc2-c2ccccc21 | 96.5
CC1=C(C(=O)Nc2ccccc2)S(=O)(=O)CCO1 | 120
CC12CCC(C(COC(=O)c3ccc([N+](=O)[O-])cc3)C1)C2(C)C (stereo not given) | 100
CC1(C)CC(C)(c2ccc(O)cc2)c2ccccc2O1 (stereo not given) | 140
Cc1cc2ccccc2s1 | 52
CC1C(NC(=O)C(=NOC(C)(C)C(=O)O)c2csc(N)n2)C(=O)N1S(=O)(=O)O (stereo not given) | 277
CC(=O)OC1CC2C3CCC(C(C)CCCC(C)C)C3(C)CCC2C2(C)CCC(=O)CC12O (stereo not given) | 161
CCOc1ccccc1OCCBr | 42
COc1ccc(C(=O)NN=C(C)c2c(O)c3ccccc3n(-c3ccccc3)c2=O)cc1 | 218
Cn1c(=O)c(C2=NNC(=O)C2=CNc2cccnc2)c(O)c2ccccc21 | 281
O=Cc1ccc2oc3ccccc3c2c1 | 74
Cc1ccc(S(=O)(=O)n2cc(C=O)c3ccccc32)cc1 | 138 to 140
CC(CCC(=O)O)C1CCC2C3C=CC4CCCCC4(C)C3CCC12C (stereo not given) | 152 to 160
NC(=O)Cc1ccccc1 | 157

Compound | melting point [°C]
C=CCc1c(N)c(C(C)=O)cc(C(C)=O)c1O | 99.5 to 102
O=C(O)c1cc2cccc([N+](=O)[O-])c2[nH]1 | 265
CCOC(=O)c1nn(-c2ccc(C)cc2)c(=N)c(C#N)c1C | 150
O=C(Cl)c1cc(-c2ccccc2)on1 | 86 to 88
c1cnc2c(c1)OCCN2 | 85 to 86
O=C(O)C1C2CCC(O2)C1C(=O)O (stereo not given) | 144
Cc1ccc(O)c(C(O)Cc2ccccc2)c1 (stereo not given) | 83
CN1CC(=O)NC1=N | 255
O=Cc1ccc(-c2cccc([N+](=O)[O-])c2)o1 | 156 to 158
NC(=NO)c1ccc(OC(F)(F)F)cc1 | 113 to 115
CCC1(CC)COC(=O)NC1=O | 97.5
O=c1[nH]cccc1[N+](=O)[O-] | 232
COc1cc(C=CC=O)ccc1O | 84
Cc1c(Br)cc([N+](=O)[O-])c(N)c1C | 153
Cc1ccc2nc(C)cc(C)c2c1 | 68
CC1(C)OC2CC(=O)OCC23C1CC(=O)C1(C)C3CCC2(C)C(c3ccoc3)OC(=O)C3OC321 (stereo not given) | 298
CCN(CC)C(=O)SCc1ccc(Cl)cc1 | 3.3
CCOC(=O)CC1NCCNC1=O (stereo not given) | 102 to 105
c1ccc2c(c1)c1ccccc1n2CC1CO1 (stereo not given) | 110 to 112
Cc1cc(C(F)(F)F)cc(=O)[nH]1 | 130
O=C(O)c1sccc1-n1cccc1 | 166
NC(=O)C1(N2C(=O)c3cccc(Cl)c3C2=O)CCCCC1 | 194
C=CC1(C)OC(=O)N(c2cc(Cl)cc(Cl)c2)C1=O (stereo not given) | 108
O=C(CCl)NCO | 100
COc1ccc(-c2cc3nc(-c4cccs4)cc(C(F)(F)F)n3n2)cc1 | 201
Oc1ncnc2[nH]ncc12 | 350

Compound | melting point [°C]
CN1CCCN=C1C=Cc1cccs1 | 178
NC(=O)c1sccc1Cl | 105 to 107
O=C(c1ccccc1)c1cc([N+](=O)[O-])ccc1Cl | 83 to 86
COc1ccccc1-n1ncc2c(=O)[nH]cnc21 | 270 to 271
CC(=NO)c1ccccc1 | 60
O=CF | -142
Clc1nc(Cl)nc(Cl)n1 | 154
c1ccc2c(c1)NC1(CCCC1)O2 | 221
C=COCC(CC)CCCC (stereo not given) | -100
CCC(C)S (stereo not given) | -165
O=[N+]([O-])c1cc(C=NO)ccc1C=NO | 175 to 176
C=CCN(CC=C)c1c(C)cc(OC(=O)NC)cc1C | 67
Nc1ccccc1-n1ccnc1 | 106 to 107
CCOC(=O)c1c(C)oc2c(F)c(F)c(F)c(F)c12 | 70
CC(C)c1ccc(CC(=O)O)cc1 | 52
CC=C(C)Cl | -19
CC1=C(C(=O)O)N2C(=O)C(NC(=O)C(N)c3ccccc3)C2SC1 (stereo not given) | 327
C=CCc1cc2c(c(OC)c1OC)OCO2 | 29.5
CC(=O)c1c(-c2c(Cl)cccc2Cl)noc1C | 72 to 74
NCC(c1ccccc1)c1ccccc1 | 43 to 49
CC12CCC(c3cn(-c4ccccc4)nc31)C2(C)C (stereo not given) | 125
O=C1N[C@H](Cc2ccccc2)CO1 | 87 to 90
O=C(O)c1ccc(Cl)cc1[N+](=O)[O-] | 144
Cc1cc(I)c(C)c(C)c1C | 31
COC(=O)[C@H]1C[C@]2(Sc3ccccc3)O[C@@]1(c1ccc(OC)cc1)c1c2cc(Cl)nc1Cl | 118
Cc1cc2cc(N)ccc2[nH]1 | 152 to 155
